Measurements from patent publication US8999957B2, “Heterocyclic compounds as ERK inhibitors” (Merck Sharp & Dohme Corp., priority 2010, dated 2015).

Tests used:
[1] = molecular target: inactive ERK2 (unphosphorylated Mouse ERK2 protein) (Mus musculus (Mouse), UniProt P63085); test: Coupled ERK2 (cERK) assay, coupled MEK1/ERK2 IMAP assay; assay type: biochemical; details: 30 μM ATP
Procedure: 14 μl of kinase buffer (10 mM Tris.HCl pH 7.2, 10 mM MgCl2, 0.01% Tween-20, 1 mM DTT) containing 0.4 ng unphosphorylated Mouse ERK2 protein was added to each well of a black 384-well assay plate. […] DMSO concentration during initial incubation is 6.7%. ERK2 activity was determined to be insensitive to DMSO concentrations up to 20%. ERK2 was then activated and it's kinase activity measured by the addition of 10 μl kinase buffer with the following components (final concentration per reaction): 2 ng active (phosphorylated) human MEK1 protein and 4 μM (total) ERK2 IMAP substrate peptides (3.9 μM unlabeled […]-CONH2 and 100 nM […](5-carboxyfluorescein)-CONH2) and 30 μM ATP. DMSO concentration during ERK activation was 4%. After one hour, reactions were terminated by addition of 60 μl IMAP detections beads in binding buffer (Molecular Devices). Binding was allowed to equilibrate for 30 minutes before reading the plate on an LJL Analyst Fluorescence Polarization plate reader. […] Active compounds were reconfirmed in an independent assay.

[2] = molecular target: fully phosphorylated, active Mouse ERK2 protein (Mus musculus (Mouse), UniProt P63085); test: Active ERK2 (aERK) IMAP assay, condition 1; assay type: biochemical; details: aERK assay condition 1, 30 μM ATP
Procedure: Active ERK2 (aERK) Assay: (Unless Indicated Otherwise, the Data Provided for aERK was obtained using Condition 1)
Activated ERK2 activity was also determined in the IMAP assay format using the procedure outlined above. […] Reactions proceeded for 30 minutes before termination by addition of 60 μl IMAP detection beads in binding buffer. Plates were read as above after 30 minute binding equilibration.

[3] = molecular target: ERK protein (Mus musculus, UniProt P63085); test: TdF (Temperature Dependence Fluorescence, thermal shift) assay for ERK; assay type: binding; details: 3 μM ERK protein, uncertainty estimated ±50%, read-out: Kd TdF
Description: Assays: TdF Assay for ERK […] The TdF assay was mainly conducted in the 96-well based CHROMO-4 real time fluorescence plate reader (BioRad). The Sypro Orange (Sigma-Aldrich), environmentally sensitive fluorescence dye, was used to monitor the protein folding-unfolding transition. Protein-ligand binding was gauged by the change (or shift) in the unfolding transition temperature (ΔTm) acquired at protein alone with respect to protein in the presence of ligand of interest. Compound of interest was first prepared in DMSO stock (typical concentration: 10 mM). […] Final percentage of DMSO resided in the sample was 2%. The sample plate was heated from 30° C. to 90° C. with thermal ramping rate of 1° C./min. […] The instrument thermal stability was ±0.2° C. The melting temperatures (Tm) for ERK protein under aforementioned conditions occurred at 61.0±0.2° C. and 64.8±02° C. respectively. Theoretical Basis for TdF-Based Ligand Binding Affinity Constant […] In brief, the binding constant of the ligand at the Tm is expressed as below: [formula] where T0 is the midpoint of unfolding for unliganded protein and Tm is the midpoint of unfolding in presence of ligand. [LTm] is free ligand at Tm. The ΔHu and ΔCpu are the enthalpy of unfolding and heat capacity change of unfolding for the protein respectively. Following algorithm derived by Winsor and coworker, the T0, ΔHu and ΔCpu can be determined separately from nonlinear regression fitting the protein alone melting curve: Where F(T) is the observed fluorescence intensity at any temperature T, Yn and Yu are the predicted fluorescence intensities for fully folded and unfolded protein, respectively; mn and mu are slope correction for changes in Yn and Yu with respect to changes in temperature (analogously replace T0 with Tm in the above equation for liganded protein to yield Tm). […] [formula] where ΔHL (T) is the van't Hoff enthalpy of ligand binding at temperature T and ΔCpL is the heat capacity upon ligand binding. For simplicity, the ΔCpL and ΔHL (T) were set to zero and −7 kcal/mol respectively.

Sequence of inactive ERK2 (unphosphorylated Mouse ERK2 protein) (P63085 whole entry): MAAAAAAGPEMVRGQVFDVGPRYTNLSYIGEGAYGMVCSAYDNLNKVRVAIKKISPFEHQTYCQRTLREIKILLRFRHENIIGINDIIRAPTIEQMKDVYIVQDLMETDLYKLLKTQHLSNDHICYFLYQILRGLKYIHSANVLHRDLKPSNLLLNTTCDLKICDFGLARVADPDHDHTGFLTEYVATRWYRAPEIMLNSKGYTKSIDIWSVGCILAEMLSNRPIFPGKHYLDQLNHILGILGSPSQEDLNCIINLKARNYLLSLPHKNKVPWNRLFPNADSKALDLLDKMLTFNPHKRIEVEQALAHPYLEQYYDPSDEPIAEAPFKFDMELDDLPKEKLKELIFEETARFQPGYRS
Sequence of fully phosphorylated, active Mouse ERK2 protein (P63085 whole entry): as above
Sequence of ERK protein (P63085 2-358 limits assumed): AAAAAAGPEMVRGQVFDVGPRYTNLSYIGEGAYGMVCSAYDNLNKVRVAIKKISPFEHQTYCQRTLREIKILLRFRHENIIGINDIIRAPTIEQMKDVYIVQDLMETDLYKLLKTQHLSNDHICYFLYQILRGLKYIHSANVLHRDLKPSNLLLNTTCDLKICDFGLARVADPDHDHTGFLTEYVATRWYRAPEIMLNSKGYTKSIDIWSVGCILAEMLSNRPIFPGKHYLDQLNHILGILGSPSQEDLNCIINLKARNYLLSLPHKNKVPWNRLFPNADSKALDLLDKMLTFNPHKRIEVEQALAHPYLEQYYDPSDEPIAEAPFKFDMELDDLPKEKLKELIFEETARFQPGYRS

Compound | IC50 [1] [nM] | IC50 [2] [nM] | Kd [3] [nM]
O=C(N[C@@H]1CCCN(Cc2ccccc2F)C1)c1ccc2[nH]nc(-c3ccnc(Cl)c3)c2c1 | 25 | 26.1 | 0.58
CC(C)Oc1ccc(-c2n[nH]c3ccc(C(=O)N[C@@H]4CCCN(Cc5ccccc5F)C4)cc23)cc1 | 443 | 275 | 1.2
CC(C)Oc1ccc(-c2n[nH]c3ccc(C(=O)N[C@@H]4CCCN(Cc5ccccc5F)C4)cc23)cn1 | 124 | 77.9 | 2
O=C(N[C@@H]1CCCN(Cc2ccccc2F)C1)c1ccc2[nH]nc(-c3ccc4c(c3)CCO4)c2c1 | 48.6 | 52.1 | 0.61
O=C(N[C@H]1CCCN(Cc2ccccc2)C1)c1ccc2[nH]nc(-c3ccncc3)c2c1 | 304 | 485 | 118
O=C(N[C@H]1CCCN(Cc2ccccc2F)C1)c1ccc2[nH]nc(-c3ccncc3)c2c1 | 166 | 224 | 38
O=C(N[C@@H]1CCCN(Cc2ccccc2)C1)c1ccc2[nH]nc(-c3ccncc3)c2c1 | 2.9 | 5.8 | 0.3
O=C(N[C@@H]1CCCN(Cc2ccccc2F)C1)c1ccc2[nH]nc(-c3ccncc3)c2c1 | 1.1 | 5.5 | 0.6
O=C(NC1CCCN(Cc2ccccc2F)C1)c1ccc2[nH]nc(-c3ccncc3)c2c1 (stereo not drawn) | 14.4 | 28.1 | 0.3
O=C(NC1CCCN(Cc2ccccc2)C1)c1ccc2[nH]nc(-c3ccncc3)c2c1 (stereo not drawn) | 16.6 | 32.5 | 0.6
CC(C)Oc1ccc(-c2n[nH]c3ccc(C(=O)NC4CCCN(Cc5ccccc5F)C4)cc23)cn1 (stereo not drawn) | 307 | 769 | 2.9
O=C(NC1CCCN(Cc2ccccc2)C1)c1ccc2[nH]nc(-c3ccc4c(c3)CCO4)c2c1 (stereo not drawn) | 172 | 134 | 1.4
O=C(NC1CCCN(Cc2ccccc2F)C1)c1ccc2[nH]nc(-c3ccc4c(c3)CCO4)c2c1 (stereo not drawn) | 231 | 284 | 2.6
CC(c1ccccc1)N1CCC[C@@H](NC(=O)c2ccc3[nH]nc(-c4ccncc4)c3c2)C1 (stereo partly drawn) | 763 | 475 | 804
CN1CC(NC(=O)c2ccc3[nH]nc(-c4ccncc4)c3c2)CC(c2ccccc2)C1 (stereo not drawn) [drawing 158, N-(1-methyl-5-phenylpiperidin-3-yl)-3-(pyridin-4-yl)-1H-indazole-5-carboxamide] | 7.4 | 2.6 | 1.4
